Reference: patent US20180161290A1, “Dosage Regimen of Diaryl Sulfide Derivatives” (Novartis AG, priority 2010, published 2018)

Assays:
healthy male volunteers = assay: Double blind, placebo controlled, dose titration, once daily multiple oral dose study (Example 2); format: in vivo, human; conditions: for hourly minimum HR (heart rate) change from baseline: FIG. 3
Protocol: A total of 56 healthy male volunteers were enrolled in a double blind, parallel, placebo controlled, dose titration, once daily, multiple oral dose study. 53 (95%) subjects completed the study.
Increasing doses of 2-amino-2-[4-(3-benzyloxyphenylthio)-2-chlorophenyl]ethyl-propane-1,3-diol (Compound A) starting at 0.3 mg o.d. or 0.5 mg o.d. and ending at the maximal therapeutic dose of 2 mg o.d. were administered to the subjects as specified in Table 1 below.
Each subject participated in a maximal 21-day Screening period, a Baseline period (Day −2), Run-in period (Day −1), a 21-day treatment period, 14-day Follow up period (with a Follow up visit on Day 35) and study completion assessments on Day 42. Subjects were assigned to one of the four groups (#1 or #2 dose titration group, placebo- or fixed-dose group) and received the once daily (o.d.) treatment in a double blinded manner.
On Day -1 (Run-in), all subjects received placebo and underwent baseline assessments including 24 hour Holter monitoring.
All the study drugs were administered between 8:00 and 8:30, immediately after modest breakfast started 30 min prior to dosing. Dosing was performed as closely as practically possible between the subjects (e.g. within 15 min).
The primary variable, the daily number of bradycardia episodes as defined in the primary objective, were modeled by means of a repeated Poisson model adjusted for the number of bradycardia episodes at Baseline, the day, the treatment, and the treatment-by-day interaction. Generalized Estimating Equations were used to estimate the parameters of the model, including the mean (and 95% CI) number of bradycardia episodes for each treatment group on each day.
The primary objective of the study was assessed from the estimated ratio, obtained from the model above, between the mean number of bradycardia episodes on each ‘dose increase day’ in each titration regimen versus the mean number of bradycardia episodes on Day 1 in the fixed-dose group, and from the 95% CI for this ratio.
The treatment effect in term of other measures of bradycardia, including the change from baseline in hourly (daily) minimum and mean heart rates, was also investigated using an appropriate model.

healthy subjects [1] = assay: Multiple ascending dose study in healthy subjects: effect on heart rate (Example 1); format: in vivo, human; conditions: 0.3, 0.6, 1.2, 2 and 3 mg once daily, hourly average heart rate, FIG. 1
Protocol: The effect on heart rate of 2-amino-2-[4-(3-benzyloxyphenylthio)-2-chlorophenyl]ethyl propane-1,3-diol (Compound A, or KRP203) was measured in healthy subjects over a period of 28 days and compared to placebo.
(§1) Multiple ascending doses of compound A were investigated in healthy subjects. 60 subjects in 5 cohorts (12 subjects per cohort) were dosed at 0.3 mg, 0.6 mg, 1.2 mg and 3 mg once daily for 14 days and at 2 mg for 28 days. In each cohort, subjects were randomised between compound A (9 subjects) and placebo (3 subjects).
The day 28 graphic compares placebo and 2 mg dose.

healthy subjects [2] = assay: Multiple ascending dose study in healthy subjects: blood lymphocyte levels; format: in vivo, human
Protocol: For example in tests on healthy subjects, the maximum percent decrease (geometric mean, 95% confidence interval) from pre-dose blood lymphocyte levels during once daily dosing of compound A for 14 days (28 days for the 2 mg dose level) in healthy subjects was 39% for 0.3 mg, 65% for 0.6 mg, 74% for 1.2 mg, 83% for 2 mg and 77% for 3 mg. The corresponding reduction in the placebo group was 29%, which may be explained by the normal lymphocyte level variability and the definition of the endpoint.
as §1

healthy subjects [3] = conditions: 1.25 mg of FTY720; cited from earlier work

NC(CO)(CO)CCc1ccc(Sc2cccc(OCc3ccccc3)c2)cc1Cl [Compound A, 2-amino-2-[4-(3-benzyloxyphenylthio)-2-chlorophenyl]ethyl-propane-1,3-diol]
hourly minimum HR (heart rate) change from baseline (healthy male volunteers; after Day 13, all subjects): no decrease in HR compared to matched baseline | safety and tolerability (healthy male volunteers; both titration regimens): safe and well tolerated | AE (adverse events) profile (healthy male volunteers; dose titration groups versus placebo): No discernable difference | hourly minimum HR (heart rate) change from baseline (healthy male volunteers; fixed dose regimen 2 mg o.d.): maximum decrease in HR on Days 1 & 2 compared to the 2 titration regimens and resolved by day 5 | number of bradycardia episodes per day (healthy male volunteers; titration regimens T#1 and T#2 versus fixed dose 2 mg day 1, FIG. 2): Both titration regimens had less bradycardic episodes compared to fixed dose day 1 | SAEs (severe adverse events) (healthy male volunteers; titration study, 21-day treatment): No SAEs (severe adverse events) were reported | decrease in heart rate following dosing (healthy subjects [1]): observed to increase with increasing dosage | maximum percent decrease (geometric mean) from pre-dose blood lymphocyte levels (healthy subjects [2]; 0.3 mg once daily for 14 days): 39% | maximum percent decrease (geometric mean) from pre-dose blood lymphocyte levels (healthy subjects [2]; 0.6 mg once daily for 14 days): 65% | maximum percent decrease (geometric mean) from pre-dose blood lymphocyte levels (healthy subjects [2]; 1.2 mg once daily for 14 days): 74% | maximum percent decrease (geometric mean) from pre-dose blood lymphocyte levels (healthy subjects [2]; 2 mg once daily for 28 days): 83% | maximum percent decrease (geometric mean) from pre-dose blood lymphocyte levels (healthy subjects [2]; 3 mg once daily for 14 days): 77%

CCCCCCCCc1ccc(CCC(N)(CO)CO)cc1 [FTY720]
decrease in heart rate (healthy subjects [3]): approximately 8 beats/min
